From patent publication US20050261169A1, “Peptide and peptide mimetic derivatives having integrin inhibitor properties III” (priority 2003, published 2005)

Test system: mouse MC3T3 E1 osteoblast cultures
Assay: Cell adhesion test on RGD-peptide-coated titanium surfaces
Assay type: cell-based
Details: 50,000 cells/cm^2 seeded, one hour in serum-free medium at 37° C.; FIG. 2; compared with JAU311003, all concentrations measured
Method: Ti or TiAl6V4 moldings having a diameter of 10 mm and a height of 1-2 mm are cleaned.
The moldings are transferred into 48-well plates (Costar, “non-tissue culture treated” Art. No. 3574). For bonding of the bioactive, cell adhesion-promoting molecules B (where B can be a cyclopeptide, peptide mimetic or linear peptide) to the prepared moldings, stock solutions containing B molecules (“B solutions”) are prepared in a final concentration of 1 mM in an aqueous buffer. Concentration series with the “B solution” final concentrations of 1 nM, 10 nM, 100 nM, 1 μM, 10 μM and 100 μM in each case are subsequently prepared by dilution with buffer. The moldings are covered with 250 μl of the respective B solutions in each case and subsequently incubated at room temperature for 18-24 hours. For removal of unbound B molecules, the samples are washed three times with buffer and stored in buffer overnight. […]
The adhesion of mouse MC3T3 E1 osteoblast cultures to RGD-peptide-coated titanium surfaces in vitro was investigated. 50,000 cells/cm^2 were seeded, and the proportion of adhered cells was determined after incubation for one hour in serum-free medium at 37° C./95% atmospheric humidity. • Cell adhesion rate [%]=adhered cells/seeded cells×100 • Peptide: cell adhesion rate [%] • The results can be found in the figures.

With “cyclo(Arg-Gly-Asp-D-Phe-Lys(^εNH—[CO—(CH2)5—NH]3—(CO—C6H3(CH2PO3H2)2)) [CD 135]” the Cell adhesion rate was “higher cell adhesion rate for all concentrations measured”.
